This note sets out measurements from PubChem BioAssay (NCI).

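Cultured in 96-well plates, cells were exposed to test compound for 48 hours across five concentrations. GI50: concentration for 50% inhibition of growth. TGI denotes the concentration required for complete inhibition of growth.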

What all share (assay): NCI-60 cell line screen, 48 h
The test system of experiment [1] is U251 CNS.
Experiment [2] deals with HCC-2998 colon.
Experiment [3] relates to HT29 colon.
Experiment [4] relates to SK-MEL-5 melanoma.
Experiment [5] concerns SF-268 CNS.
The subject of experiment [6] is TK-10 renal.
The subject of experiment [7] is SNB-75 CNS.
Experiment [8] deals with PC-3 prostate.
Experiment [9] relates to MDA-MB-231 breast.

Take `CC(=O)Nc1ccc(/C=c2\sc3nnc(CCC(=O)Nc4ccccc4Cl)n3c2=O)cc1`: the TGI in [1] was 31.8 µM; in [2], more than 10 µM; in experiment [3] it was more than 100 µM; in experiment [4], 68.2 µM; in [5], 88 µM; in [6], more than 100 µM.
As for `N.N.NCCCCCN.O=C([O-])CCl.O=C([O-])CCl.O=C([O-])CCl.O=C([O-])CCl.[Pt+4].[Pt+4]`, the GI50 was 5.06 µM in [1]; 11.6 µM in experiment [2]; 9.87 µM in [3]; 4.68 µM in experiment [4]; 2.13 µM in experiment [5]; 26.4 µM in experiment [6]. Besides, in [7], the GI50 was 0.996 µM. The TGI in experiment [1] was 40.6 µM; in experiment [2] it was 28 µM; in experiment [3], 42.4 µM; in experiment [4], 18.3 µM; in experiment [5], 36.8 µM; in experiment [6], more than 100 µM. This compound had a TGI in experiment [7] of 11.8 µM.
For `Cc1cc([N+](=O)[O-])ccc1NC(=O)C(=O)C(C(=O)c1ccccc1-c1ccccc1)C1OC(=O)c2ccccc21` (configuration not stated), the TGI came out at 26 µM in experiment [1]; 29.1 µM in experiment [2]; 41.9 µM in experiment [3]; 28.7 µM in experiment [4]; 58.1 µM in experiment [5]; 33.8 µM in experiment [6].
Take `COc1c(C)cc(O)cc1C=O`: the TGI in [1], in experiment [2], in experiment [3], in experiment [4], in experiment [5] and in [6] was more than 100 µM in each case. The same compound showed a TGI in experiment [7] of more than 100 µM.
With `CCOC(=O)C1SC(=Nc2cccc(Cl)c2C)N=C1C` (configuration not stated), the TGI was 30.3 µM in experiment [1]; more than 10 µM in [2]; 32.6 µM in [3]; more than 100 µM in [5]; 73.3 µM in experiment [6]; 61.4 µM in [7].
With `CCCCCCCCOCC(O)COC(C)C` (configuration not stated), the TGI in experiment [1] was more than 100 µM; in [2] it was 58.3 µM; in [3] it was more than 100 µM; in experiment [4] it was more than 100 µM; in [5], more than 100 µM; in experiment [6] it was more than 100 µM.
For the compound `Cc1cc([N+](=O)[O-])ccc1Sc1c2ccccc2nc2cc(Cl)ccc12`, the TGI in experiment [1] was 80.7 µM; in experiment [2] it was more than 100 µM; in [4] it was more than 100 µM; in experiment [5], 89.5 µM; in experiment [6] it was more than 100 µM; in [7], 89.7 µM.
Consider `COC(=O)C(Cc1nc2ccccc2[nH]c1=O)/C(=N\NC(C)(C)C)C(=O)Nc1c(C)cc(Br)cc1C` (configuration not stated), for which the TGI was 49.9 µM in [1]; more than 100 µM in experiment [2]; more than 100 µM in [3]; 55.3 µM in [4]; 77.7 µM in experiment [5].
Turning to `COc1ccc(OC(C)=O)c2c1CCC=CC2=O`, the TGI in experiment [1] is 32.2 µM; in experiment [2], 32.9 µM; in experiment [3], 33.7 µM; in experiment [4] it was 28.9 µM; in [6] it was 32.2 µM; in experiment [7] it was 29.3 µM.
Regarding `COc1ccc(C(CCC(C)=O)C(=O)O)cc1OC` (configuration not stated), the TGI in experiment [1], in experiment [3], in [4], in [5], in [6] and in experiment [7] was more than 100 µM in each case.
In the case of `C#CCNC(=O)N(CC#C)N=O`, the TGI in experiment [1], in [2], in [3], in experiment [4], in [5] and in experiment [6] was more than 100 µM each time. For the same compound, the TGI in experiment [7] is more than 100 µM.
On to `c1ccc([CH2][Sn]([CH2]c2ccccc2)([O]c2cccc3cccnc23)[O]c2cccc3cccnc23)cc1`, for which the GI50 in experiment [1] was 0.218 µM; in experiment [2], 0.201 µM; in [3], 0.139 µM; in experiment [4], 0.213 µM; in experiment [5], 1.2 µM; in experiment [6], 1.67 µM. Also, in experiment [7], the GI50 is 0.468 µM. Besides, the TGI in experiment [1] came out at 0.463 µM; in experiment [2] it was 0.418 µM; in experiment [3], 0.361 µM; in experiment [4], 0.415 µM; in experiment [5] it was 7.04 µM; in [6] it was 3.1 µM. This compound also gave a TGI in [7] of 1.81 µM.
Turning to `CCN(CC)CC(C)(C)C(=O)/C=C/c1cccc(/C=C/C(=O)C(C)(C)CN(CC)CC)c1`, the TGI was determined as 0.686 µM in experiment [1]; 2.51 µM in experiment [2]; 1.08 µM in [3]; 2.97 µM in experiment [4]; 1.68 µM in [5]; 2.35 µM in experiment [6]. The TGI in experiment [7] came out at 1.19 µM.
Turning to `Cc1ccc(S(=O)(=O)c2ccc(NC(=O)SCCC(=O)O)cc2)cc1`, the TGI in experiment [1], in experiment [2], in [3], in experiment [5], in [6] and in experiment [7] was more than 100 µM throughout.
As for `COc1cccc2ccc(C(=O)c3ccccc3)nc12`, the TGI in [1], in experiment [2], in experiment [4], in [5], in [6] and in experiment [7] was more than 100 µM throughout.
Consider `CN(C)c1ccc(/C=C/C(=O)[O-])cc1.CN(C)c1ccc(/C=C/C(=O)[O-])cc1.[Cu+2]`, for which the GI50 in experiment [1] was 37.2 µM; in [6] it was more than 100 µM. Besides, the TGI in experiment [1] is more than 100 µM; in [2] it was more than 100 µM; in experiment [3], more than 100 µM; in [4], 93.5 µM; in experiment [5], more than 100 µM; in experiment [6], more than 100 µM. This compound came in with a TGI in experiment [7] of more than 100 µM.
As to `COc1ccccc1NC(=O)C1=C(C)NC(C)=C(C(=O)Nc2ccccc2OC)C1C1=CC=COC1`, the TGI is 77.1 µM in [1]; 50.2 µM in [2]; 62.7 µM in [3]; 41.9 µM in experiment [4]; 62.4 µM in [5]; 61.6 µM in experiment [6]. Besides, in experiment [7], the TGI is more than 100 µM.
For `O=C1CC(c2c(-c3ccccc3)[nH]c3ccccc23)C(=O)N1` (configuration not stated), the TGI in experiment [1], in experiment [2], in [3], in experiment [4], in experiment [6] and in [7] was more than 100 µM in each case.
Consider `C=CC(=O)NCCSCCCOC1(C(=O)O)CC(O)C(NC(C)=O)C(C(O)C(O)CO)O1` (configuration not stated), for which the TGI in experiment [1], in experiment [2], in experiment [3] and in experiment [6] was more than 100 µM throughout.
For the compound `COC1OC(CO)C(O)C(OC(C)=O)C1NC(=O)N(CCCl)N=O` (configuration not stated), the TGI in experiment [2], in experiment [3], in experiment [4], in experiment [5], in experiment [6] and in experiment [7] was more than 100 µM in each case.
`CC1=Nc2ccccc2NC(c2ccoc2)C1` (configuration not stated): the TGI in experiment [1], in [2], in [3], in [4], in experiment [5] and in experiment [6] was more than 100 µM throughout. The TGI in [7] was more than 100 µM.
Consider `COC(=O)C(=O)C(C(=O)C(=O)Nc1cccc(C(C)=O)c1)c1nc2ccc([N+](=O)[O-])cc2[nH]c1=O` (configuration not stated), for which the TGI in [1], in experiment [2], in experiment [3], in experiment [4], in [5] and in experiment [6] was more than 100 µM in each case.
Regarding `O=C1/C(=C\c2ccc(F)cc2)CN(C(=O)c2ccccc2)C/C1=C\c1ccc(F)cc1`, the GI50 in experiment [1] was 1.65 µM; in [2], 2.62 µM; in [8] it was 2.08 µM; in experiment [3] it was 1.67 µM; in experiment [9], 2.27 µM; in [4] it was 1.66 µM. In addition, the GI50 in experiment [6] was 4.21 µM; in experiment [7], 3.57 µM. The TGI in [1] is 3.76 µM; in experiment [2], 6.98 µM; in experiment [8], 6.59 µM; in experiment [3] it was 4.34 µM; in [9], 6.39 µM; in experiment [4] it was 3.8 µM. For the same compound, the figures for the TGI in [6] and in experiment [7] were 17.3 µM and 42.6 µM, respectively.
Regarding `O=[N+]([O-])c1ccc(C2CC(c3ccccc3Cl)=Nc3ccccc3S2)cc1` (configuration not stated), the TGI in experiment [1] was 12.2 µM; in [2], 54.2 µM; in [3] it was 45.9 µM; in experiment [4], 12.8 µM; in [5] it was 18.9 µM; in experiment [6], more than 79.1 µM. The compound further yielded a TGI in [7] of 44.1 µM.
Turning to `OC(c1cc(-c2cccc(Cl)c2)nc2ccccc12)C1CCCCN1` (configuration not stated), the GI50 in experiment [1] was 1.66 µM; in experiment [2], 2.09 µM; in experiment [8] it was 1.4 µM; in experiment [3] it was 1.7 µM; in experiment [9] it was 1.66 µM; in [5], 1.57 µM. The GI50 was 2.12 µM in experiment [6] and 1.38 µM in experiment [7]. For the same compound, the TGI was found to be 3.05 µM in experiment [1]; 4.15 µM in experiment [2]; 2.84 µM in [8]; 3.42 µM in [3]; 3.37 µM in experiment [9]; 2.97 µM in [5]. For the same compound, the TGI in [6] was 4.48 µM; in [7], 3.23 µM.
For the compound `COC(=O)C1=Cc2cc(OC)c(OC)c(OC)c2[C@H](c2cc(OC)c(OC)c(OC)c2)C1C(=O)OC` (some centres not stated), the TGI in [1], in experiment [2], in [3], in experiment [4], in experiment [5] and in [6] was more than 100 µM in each case. Further, the TGI in experiment [7] is more than 100 µM.
As for `COC(=O)CCC(NC(=S)N/N=C/c1ccccn1)C(=O)OC` (configuration not stated), the TGI in experiment [1], in experiment [2], in experiment [3], in experiment [4], in experiment [5] and in [6] was more than 100 µM each time. The TGI in experiment [7] was more than 100 µM.
For `O=C1/C(=N\O)c2ccccc2S1(=O)=O`, the TGI in [1], in experiment [2], in experiment [3], in [4], in experiment [5] and in experiment [6] was more than 100 µM throughout. Also, the TGI in [7] was more than 100 µM.
Regarding `C=C=C(C(=O)OC)S(=O)c1ccccc1[N+](=O)[O-]` (configuration not stated), the TGI in [1], in experiment [2], in experiment [3], in [4], in experiment [5] and in experiment [6] was more than 100 µM in each case. The compound also yielded a TGI in [7] of more than 100 µM.
Turning to `CC(=O)Nc1ccccc1-c1nc2ccccc2nc1C`, the TGI in experiment [1], in [3], in experiment [4], in experiment [5], in experiment [6] and in [7] was more than 100 µM throughout.
As for `O=S(=O)([O-])c1ccc(N=Cc2ccccc2[O-])cc1.O=S(=O)([O-])c1ccc(N=Cc2ccccc2[O-])cc1.[O]=[U+2]=[O]`, the GI50 in experiment [1] is 94.7 µM; in experiment [3] it was more than 100 µM; in [5], more than 100 µM; in [6], 30.7 µM; in experiment [7], more than 100 µM. Also, the TGI in experiment [1] was more than 100 µM; in experiment [3], more than 100 µM; in experiment [5], more than 100 µM; in [6], 71.7 µM; in experiment [7], more than 100 µM.
Take `CN1C(=O)CCC2[C@@H]3CC=C4C[C@@H](O)CC[C@]4(C)C3CC[C@@]21C` (some centres not stated): the TGI is more than 100 µM in experiment [1]; more than 100 µM in experiment [2]; more than 100 µM in [3]; 50.3 µM in [4]; more than 100 µM in [6]; more than 100 µM in [7].
